Experimental data from ChEMBL document CHEMBL1201862, “PubChem BioAssay data set” (2004).
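Test compounds were applied to cells in 96-well plates for 48 hours at 5 doses. Abbreviation: GI50, concentration required for 50% inhibition of growth.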 Activity calls are given as the source filed them. Cut-off read from the data, not from the text of the source: active = GI50 up to about 1.1 µM and inactive = higher.

Assays:
Assay in all cases: inhibition of tumour cell growth, NCI panel, 48 h
[1] = system: Malme-3M
[2] = system: HOP-92
[3] = system: HCT-15
[4] = system: K562
[5] = system: NCI-H23
[6] = system: ACHN
[7] = system: KM-20L2
[8] = system: HOP-62
[9] = system: OVCAR-4
[10] = system: UACC-62
[11] = system: RXF 393
[12] = system: NCI-H460
[13] = system: M14
[14] = system: HCT-116
[15] = system: SF-539
[16] = system: SK-MEL-5
[17] = system: KM12

Row | SMILES | GI50 [1] | GI50 [2] | GI50 [3] | GI50 [4] | GI50 [5] | GI50 [6] | GI50 [7] | GI50 [8] | GI50 [9] | GI50 [10] | GI50 [11] | GI50 [12] | GI50 [13] | GI50 [14] | GI50 [15] | GI50 [16] | GI50 [17]
1 | CC(=O)c1c(O)c2c([nH]c1=O)CCCC2 | > 100 µM (inactive) | > 100 µM (inactive) | 48.1 µM | > 100 µM (inactive) | 41.1 µM (inactive) | > 100 µM (inactive) | 43.1 µM (inactive) | 19.9 µM (inactive) | > 100 µM (inactive) | 18.1 µM (inactive) | 22.3 µM (inactive) | 6.84 µM (inactive) | 39.3 µM (inactive) | – | – | – | –
2 | Cc1c(Cl)cccc1NC(=O)/C(Cl)=C(\Cl)C(=O)O | 17.8 µM (inactive) | 17.4 µM (inactive) | 16.4 µM | 6.19 µM (inactive) | 19.5 µM (inactive) | 17.5 µM (inactive) | 21.6 µM (inactive) | 31.8 µM (inactive) | 16.9 µM (inactive) | 13.2 µM (inactive) | 19.9 µM (inactive) | > 100 µM (inactive) | 16.1 µM (inactive) | 14.2 µM (inactive) | 17 µM (inactive) | 20.5 µM (inactive) | 17.3 µM (inactive)
3 | CN(C)c1n/c(=N/c2ccc3ccccc3c2)ss1 | 24.4 µM (inactive) | – | 17.3 µM | 15.1 µM (inactive) | – | 20.6 µM (inactive) | 29.6 µM (inactive) | 41.8 µM (inactive) | 17.5 µM (inactive) | 21.5 µM (inactive) | 41.9 µM (inactive) | 5.75 µM (inactive) | 24 µM (inactive) | 13.8 µM (inactive) | 78.9 µM (inactive) | 11.1 µM (inactive) | 15.6 µM (inactive)
4 | COC(=O)C(Cc1ccccc1)NC(=O)Cn1ccnc1[N+](=O)[O-] (centres undefined) | 31.7 µM (inactive) | 63.8 µM (inactive) | > 100 µM | > 100 µM (inactive) | > 100 µM (inactive) | > 100 µM (inactive) | > 100 µM (inactive) | > 100 µM (inactive) | > 100 µM (inactive) | > 100 µM (inactive) | > 100 µM (inactive) | > 100 µM (inactive) | > 100 µM (inactive) | – | > 100 µM (inactive) | 96.6 µM (inactive) | > 100 µM (inactive)
5 | Nc1nc2c(c(=O)[n-]1)[n+](CCO)cn2C1OC(CO)C(O)C1O (centres undefined) | > 100 µM (inactive) | > 100 µM (inactive) | > 100 µM | > 100 µM (inactive) | – | > 100 µM (inactive) | > 100 µM (inactive) | > 100 µM (inactive) | > 100 µM (inactive) | > 100 µM (inactive) | > 100 µM (inactive) | > 100 µM (inactive) | > 100 µM (inactive) | > 100 µM (inactive) | > 100 µM (inactive) | > 100 µM (inactive) | > 100 µM (inactive)
6 | C=C(C(=C)P(=S)(C(C)C)C(C)C)P(=S)(C(C)C)C(C)C | > 100 µM (inactive) | > 100 µM (inactive) | > 100 µM | > 100 µM (inactive) | > 100 µM (inactive) | > 100 µM (inactive) | > 100 µM (inactive) | > 100 µM (inactive) | > 100 µM (inactive) | > 100 µM (inactive) | > 100 µM (inactive) | > 100 µM (inactive) | > 100 µM (inactive) | > 100 µM (inactive) | > 100 µM (inactive) | > 100 µM (inactive) | > 100 µM (inactive)
7 | O=C(CC1(O)C(=O)Nc2c(Cl)ccc(Cl)c21)c1ccc(Cl)cc1 (centres undefined) | 28.8 µM (inactive) | 37.8 µM (inactive) | 31.4 µM | – | 21.6 µM (inactive) | 20.8 µM (inactive) | 38.1 µM (inactive) | 32 µM (inactive) | 25.7 µM (inactive) | 23.1 µM (inactive) | 21.9 µM (inactive) | 23.4 µM (inactive) | 26.4 µM (inactive) | 29.4 µM (inactive) | 24.8 µM (inactive) | – | 28.4 µM (inactive)
8 | O=C(O)c1c2c(cc3c(=O)c4ccccc4[nH]c13)CCCC2 | > 100 µM (inactive) | 59.7 µM (inactive) | 62.7 µM | – | > 100 µM (inactive) | > 100 µM (inactive) | > 100 µM (inactive) | > 100 µM (inactive) | – | 76.7 µM (inactive) | > 100 µM (inactive) | > 100 µM (inactive) | – | 82 µM (inactive) | > 100 µM (inactive) | – | –
9 | CC(C)c1ccccc1NC(=O)CCc1n[nH]c(=S)o1 | > 100 µM (inactive) | > 100 µM (inactive) | > 41.7 µM | > 50.7 µM (inactive) | > 100 µM (inactive) | > 81.7 µM (inactive) | > 100 µM (inactive) | > 100 µM (inactive) | > 100 µM (inactive) | > 100 µM (inactive) | > 100 µM (inactive) | > 49.9 µM (inactive) | > 100 µM (inactive) | > 63.5 µM (inactive) | 72.3 µM (inactive) | > 100 µM (inactive) | > 100 µM (inactive)
10 | C/C(CC(=O)NC1=CC=C(NC(=O)C/C(C)=N\Nc2ccccc2)CC1)=N/Nc1ccccc1 | > 100 µM (inactive) | > 100 µM (inactive) | 29.7 µM | 75.7 µM (inactive) | > 100 µM (inactive) | > 100 µM (inactive) | > 100 µM (inactive) | > 100 µM (inactive) | > 100 µM (inactive) | > 100 µM (inactive) | > 100 µM (inactive) | > 100 µM (inactive) | > 100 µM (inactive) | > 100 µM (inactive) | > 100 µM (inactive) | > 100 µM (inactive) | > 100 µM (inactive)
11 | Cc1nc2ccccc2[s+]c1-c1cnc(NC#N)nc1C(=O)Nc1cccc(Cl)c1 | > 100 µM (inactive) | – | > 100 µM | > 100 µM (inactive) | > 100 µM (inactive) | > 100 µM (inactive) | > 100 µM (inactive) | > 100 µM (inactive) | > 100 µM (inactive) | > 100 µM (inactive) | > 100 µM (inactive) | > 100 µM (inactive) | > 100 µM (inactive) | > 100 µM (inactive) | > 100 µM (inactive) | > 100 µM (inactive) | > 100 µM (inactive)
12 | Cc1cc2c(C)n[nH]c2c(C(=O)O)c1C | – | < 0.01 µM (active) | > 100 µM | > 100 µM (inactive) | 85.7 µM (inactive) | > 100 µM (inactive) | > 100 µM (inactive) | > 100 µM (inactive) | 51.6 µM (inactive) | > 100 µM (inactive) | > 100 µM (inactive) | > 100 µM (inactive) | – | > 100 µM (inactive) | > 100 µM (inactive) | – | > 100 µM (inactive)
13 | COC1CC(n2cc(F)c(N)nc2=O)OC1CO (centres undefined) | > 100 µM (inactive) | > 100 µM (inactive) | > 100 µM | > 100 µM (inactive) | > 100 µM (inactive) | > 100 µM (inactive) | > 100 µM (inactive) | > 100 µM (inactive) | > 100 µM (inactive) | – | > 100 µM (inactive) | 94 µM (inactive) | > 100 µM (inactive) | – | – | > 100 µM (inactive) | > 100 µM (inactive)
